Publication PMC6456411 (Angewandte Chemie (International ed. in English), 2019)
Read-outs that look alike come from different tables or passages of the source.

Legend:
[1] = system: co-culture of HS-5 and Saos-2 cells, 3D cell spheroids; test: Cytotoxicity of chemotherapy drugs on co-cultured 3D spheroids; type: cell-based; conditions: co-culture 3D cell spheroids, 24 h; for cell toxicity: within the tested concentrations
[2] = system: Saos-2 cells in 3D culture; test: Cytotoxicity of chemotherapy drugs on 3D cell spheroids of Saos-2; type: cell-based
Saos-2 cells = test: Cytotoxicity of chemotherapy drugs on 2D cell culture of Saos-2
[3] = system: co-culture of HS-5 and Saos-2 cells, 2D cell sheets; test: Cytotoxicity of chemotherapy drugs on co-cultured 2D cell sheets; type: cell-based; conditions: co-culture 2D cell sheets, 24 h; for cell toxicity: within the tested concentrations
[4] = system: co-culture of HS-5 and Saos-2 cells; test: Spheroid formation and live-dead assay in co-culture of HS-5 and Saos-2 cells; type: cell-based; conditions: treated for 48 h; 1P:2 300 μM, ratio 1:1
[5] = Homo sapiens, SAOS-2, 48 h, read-out: IC50 against Saos-2 cells

**Q.** How did the cell death ([1]; 5 μM) turn out when `COc1cccc2c1C(=O)c1c(O)c3c(c(O)c1C2=O)C[C@@](O)(C(=O)CO)C[C@@H]3O[C@H]1C[C@H](N)[C@H](O)[C@H](C)O1` [Dox, doxorubicin] was run?
**A.** Its cell death is “hardly causes cell death”.

**Q.** What about the cell toxicity [1] of the same molecule?
**A.** Its cell toxicity is “little toxicity”.

**Q.** What about the IC50 [2, 5] of the same molecule?
**A.** The IC50 was > 6 µM.

**Q.** And the “increase of IC50 in 3D culture than 2D culture” value ([2]; Saos-2 cells, 48 h)?
**A.** The value was “more than 3 times”.

**Q.** What about the IC50 (Saos-2 cells; [5]) of the same molecule?
**A.** Its IC50 is 1.4 µM.

**Q.** And the cell killing ([3]; 5 μM)?
**A.** The cell killing was “kills about half of cells”.

**Q.** What about the cell toxicity [3] of the same molecule?
**A.** The cell toxicity was “dosage dependent cell toxicity”.

**Q.** Which results are given for `N.N.[Cl][Pt][Cl]` [cisplatin]?
**A.** cell death ([1]; 50 nM): hardly causes cell death; cell toxicity [1]: little toxicity; IC50 ([2]; read-out: IC50 against Saos-2 cells, 3D culture, 48 h): 33.3 µM; IC50 ([2]; read-out: increase of IC50 in 3D culture, Saos-2 cells, 48 h, 3D versus 2D): 12 µM; cell killing ([3]; 50 nM): kills about half of cells; cell toxicity [3]: dosage dependent cell toxicity

**Q.** With `CN[C@H](CC(C)C)C(=O)N[C@H]1C(=O)N[C@@H](CC(N)=O)C(=O)N[C@H]2C(=O)N[C@H]3C(=O)N[C@H](C(=O)N[C@H](C(=O)O)c4cc(O)cc(O)c4-c4cc3ccc4O)[C@H](O)c3ccc(c(Cl)c3)Oc3cc2cc(c3O[C@@H]2O[C@H](CO)[C@@H](O)[C@H](O)[C@H]2O[C@H]2C[C@](C)(N)[C@H](O)[C@H](C)O2)Oc2ccc(cc2Cl)[C@H]1O` [compound 2, vancomycin] as the molecule, how does the “influence on cytotoxicity of chemotherapy drugs against Saos-2 cells” value (Saos-2 cells; co-incubating with chemotherapy drugs) read?
**A.** The value was “hardly influence their cytotoxicity”.

**Q.** What about the “morphology of co-cultured HS-5 and Saos-2 cells” value [4] of the same molecule?
**A.** Its value is “remain a 2D cell sheet”.

**Q.** For `CC(=O)O[C@H]1C(=O)[C@@]2(C)[C@H]([C@H](OC(=O)c3ccccc3)[C@]3(O)C[C@H](OC(=O)[C@H](O)[C@@H](NC(=O)c4ccccc4)c4ccccc4)C(C)=C1C3(C)C)[C@]1(OC(C)=O)CO[C@@H]1C[C@@H]2O` [taxol], which cell viability ([2]; Saos-2 3D spheroids, 40 nM, 48 h) is on record?
**A.** Its cell viability is 94.25%.

**Q.** What about the cell viability (Saos-2 cells; Saos-2 2D sheet, 40 nM, 48 h) of the same molecule?
**A.** Its cell viability is 60.84%.
